Reference: paper PMC7862169, “Restoration of renal TIMP3 levels via genetics and pharmacological approach prevents experimental diabetic nephropathy” (Clinical and Translational Medicine, 2021)

Assays:
[1] = cited from earlier work; for Kidney selectivity of carrier peptide: even with conjugated drugs
Excerpt: Many proteins and peptides take on an increasingly important role as therapeutics in areas including diabetes diseases mainly due to their potential to bind to targets in a selective manner, thus reducing undesired off‐target effects. ^17 Drug‐targeting delivery to the kidney is an attractive method to increase the pharmaceutical compounds efficacy, ^18 however it represents a promising but underdeveloped area. Recently, galectin‐3 targeted G3C12 peptide and ε‐polylysine derived, synthetic (KKEEE)3K peptide have been identified as novel highly kidney‐specific carriers with exceptional kidney s ...

human recombinant MMP9 = molecular target: T1, human recombinant MMP9 (Homo sapiens, UniProt P14780); assay: MMP9 colorimetric Inhibitor Screening Assay kit; format: biochemical; conditions: 1 μM peptide, 0.9 U enzyme, 37°C 60 minutes before substrate, read at 412 nm, n = 3; Figures 5A, S4E
T1 construct: purchased Abcam
T1 sequence (P14780 94-707): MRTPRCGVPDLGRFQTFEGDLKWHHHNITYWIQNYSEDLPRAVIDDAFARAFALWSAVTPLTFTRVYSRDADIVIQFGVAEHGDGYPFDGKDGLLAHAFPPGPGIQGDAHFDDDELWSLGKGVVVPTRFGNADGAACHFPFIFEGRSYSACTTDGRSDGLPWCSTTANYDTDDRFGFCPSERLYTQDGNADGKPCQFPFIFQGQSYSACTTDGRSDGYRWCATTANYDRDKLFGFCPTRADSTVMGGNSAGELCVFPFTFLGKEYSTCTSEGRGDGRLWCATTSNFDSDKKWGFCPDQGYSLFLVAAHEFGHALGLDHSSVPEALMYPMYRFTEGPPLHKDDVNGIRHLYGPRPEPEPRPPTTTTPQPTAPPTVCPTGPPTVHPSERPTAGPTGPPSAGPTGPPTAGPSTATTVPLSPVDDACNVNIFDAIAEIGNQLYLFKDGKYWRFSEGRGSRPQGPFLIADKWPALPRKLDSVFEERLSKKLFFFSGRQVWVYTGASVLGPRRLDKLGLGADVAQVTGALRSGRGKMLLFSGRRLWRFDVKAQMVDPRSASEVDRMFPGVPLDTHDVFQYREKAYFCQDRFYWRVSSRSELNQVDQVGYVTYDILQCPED
Experimental: (§1) The MMP2/9 activities were evaluated using MMP2/MMP9 colorimetric Inhibitor Screening Assay kits (Abcam) under the manufacturer's instruction. In brief, 0.9 U of human recombinant MMP2 or MMP9 was mixed with 1 μM G3C12, G3C12‐NTIMP3, G3C12‐T2GNTIMP3 peptides, or 1.3 μM NNGH inhibitor as […]. The mixture was incubated at 37°C for 60 minutes then substrate was added. The plate was read at 412 nm by infinite F50 microplate reader (TECAN). Continuous recording was made at 1 minute interval for 20 minutes. The experiment was performed in triplicate.

diabetic DBA/2J mice = assay: Peptide treatment of STZ diabetic mice: toxicity, behaviour, blood glucose; format: in vivo; conditions: STZ diabetic DBA/2J mice, 2 mg/kg iv, two injections per week for 8 weeks
Experimental: Diabetes was induced in 8‐week‐old mice by a multiple low‐dose streptozotocin (STZ) (Sigma) injection. STZ was given intraperitoneally (ip) at 50 mg/kg per day (freshly made in Na‐Citrate buffer, pH 4.5) for 5 consecutive days after a 4 hours fast. Control animals were treated with Na‐citrate buffer alone. Diabetes was defined as fed blood glucose level ≥250 mg/dL using a glucometer (OneTouch Ultra, LifeScan).
At 5 weeks after STZ or Na‐Citrate buffer administration, DBA/2J mice were randomly divided into the following four treatment groups: (1) vehicle buffer (PBS), (2) G3C12 free peptide, (3) G3C12‐NTIMP3 peptide, and (4) G3C12‐T2GNTIMP3 peptide. Peptides were dissolved in sterile PBS and administered intravenously (iv) by retro‐orbital injection (2 mg/kg body weight) in mice two times per week for 8 weeks.

human recombinant ADAM17 = molecular target: T2, human recombinant ADAM17 (Homo sapiens, UniProt P78536); assay: ADAM17 activity, SensoLyte 520 TACE Activity Assay Kit; format: biochemical; conditions: 1 μM peptide, 1 μM enzyme, QXL520/5-FAM FRET substrate, 60 minutes, n = 3; Figures 5A, S4E
T2 construct: purchased R&D Systems
T2 sequence (P78536 215-824): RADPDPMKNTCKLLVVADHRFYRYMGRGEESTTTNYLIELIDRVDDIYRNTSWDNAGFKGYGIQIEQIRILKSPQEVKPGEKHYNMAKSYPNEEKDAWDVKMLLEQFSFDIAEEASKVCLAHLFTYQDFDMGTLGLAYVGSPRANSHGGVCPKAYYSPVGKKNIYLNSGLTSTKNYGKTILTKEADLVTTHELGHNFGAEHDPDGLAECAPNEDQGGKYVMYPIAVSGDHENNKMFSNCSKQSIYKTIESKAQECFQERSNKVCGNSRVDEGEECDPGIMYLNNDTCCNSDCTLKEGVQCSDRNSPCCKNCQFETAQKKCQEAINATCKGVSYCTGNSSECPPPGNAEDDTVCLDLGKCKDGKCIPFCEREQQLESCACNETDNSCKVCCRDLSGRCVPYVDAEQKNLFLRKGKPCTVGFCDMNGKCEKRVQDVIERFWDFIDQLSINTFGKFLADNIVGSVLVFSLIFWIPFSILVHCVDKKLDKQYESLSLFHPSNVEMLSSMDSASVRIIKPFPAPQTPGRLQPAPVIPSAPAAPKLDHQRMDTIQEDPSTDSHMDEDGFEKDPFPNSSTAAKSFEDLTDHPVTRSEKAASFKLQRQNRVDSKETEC
Experimental: ADAM17 activity was determined using the SensoLyte 520 TACE Activity Assay Kit (AnaSpec). 1 μM human recombinant ADAM17 (R&D Systems) was incubated with the QXL520/ 5‐FAM FRET substrate, derived from a sequence surrounding the cleavage site of ADAM17. For inhibitor studies, 1μM TAPI‐0 or 1 μM G3C12, G3C12‐NTIMP3 and G3C12‐T2GNTIMP3 peptides were used. Active ADAM17 cleaves FRET substrate into two separate fragments resulting in an increase of 5‐FAM fluorescence which can be monitored at excitation/emission = 490 nm/520 nm measured in a fluorescence microplate reader (Beckman Coulter DTX 800) continuously every 5 minutes for 60 minutes (10).

human recombinant MMP2 = molecular target: T3, human recombinant MMP2 (Homo sapiens, UniProt P08253); assay: MMP2 colorimetric Inhibitor Screening Assay kit; format: biochemical; conditions: 1 μM peptide, 0.9 U enzyme, 37°C 60 minutes before substrate, read at 412 nm, n = 3; Figures 5A, S4E
T3 construct: purchased Abcam
T3 sequence (P08253 110-660): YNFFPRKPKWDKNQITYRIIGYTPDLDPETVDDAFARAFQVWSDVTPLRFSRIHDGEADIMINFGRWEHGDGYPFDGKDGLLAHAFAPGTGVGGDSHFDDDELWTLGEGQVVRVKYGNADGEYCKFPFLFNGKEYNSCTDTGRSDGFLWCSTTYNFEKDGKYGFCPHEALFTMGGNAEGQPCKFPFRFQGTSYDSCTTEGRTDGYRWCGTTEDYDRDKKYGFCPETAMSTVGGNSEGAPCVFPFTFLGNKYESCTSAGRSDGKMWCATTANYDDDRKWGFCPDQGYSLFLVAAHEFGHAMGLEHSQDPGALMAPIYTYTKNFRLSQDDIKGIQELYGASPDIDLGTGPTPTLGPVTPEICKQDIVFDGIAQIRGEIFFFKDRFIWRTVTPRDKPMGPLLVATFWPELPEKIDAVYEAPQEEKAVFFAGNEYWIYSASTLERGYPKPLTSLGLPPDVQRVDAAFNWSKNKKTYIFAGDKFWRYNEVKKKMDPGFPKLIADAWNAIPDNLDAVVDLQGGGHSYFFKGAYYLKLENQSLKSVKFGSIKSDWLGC
Experimental: as §1

Row | Substance | Kidney accumulation of carrier peptide [1] | Toxic profile of carrier peptide [1] | Kidney selectivity of carrier peptide [1] | Inhibition of human MMP9 enzyme activity (percentage of residual activity) (human recombinant MMP9) | Changes in behavioral or nutritional status (diabetic DBA/2J mice) | Toxic effects (diabetic DBA/2J mice) | Inhibition of human ADAM17 enzyme activity (percentage of residual activity) (human recombinant ADAM17) | Inhibition of human MMP2 enzyme activity (percentage of residual activity) (human recombinant MMP2)
1 | (KKEEE)3K [ε‐polylysine derived, synthetic kidney‐specific carrier peptide] | rapid kidney accumulation | no toxic profile | exceptional kidney selectivity |  |  |  |  | 
2 | ANTPCGPYTHDCPVKR [G3C12] | rapid kidney accumulation | no toxic profile | exceptional kidney selectivity | did not show any inhibitory activity | Neither have any changes been observed | No toxic effects were observed | did not show any inhibitory activity | did not show any inhibitory activity
